For 17 molecules, IC50 and GI50 results are on record in US11691970B2, “Pyrazolopyridinone compounds” (Janssen Pharmaceutica NV, priority 2017, dated 2023).

The test system of experiment [1] is NIH/3T3 cells transfected with control vector. Put plainly: NIH/3T3 mock cell proliferation assay (counter assay, CellTiter Glo). The settings on record: Mus musculus, NIH3T3, 72 h, 72-hr incubation, top concentration 30 μM, counter assay for general toxicity, read-out: NIH/3T3 MOCK CTG (IC50). It is filed as cell-based. On the procedure:
NIH/3T3 Mock Cell Proliferation Assay
In day 1, 90 μL of cell suspension (NIH/3T3 cells transfected with the same control vector as in the above two proliferation assays) (total 30,000 cells per well in growth medium (DMEM containing 1% Glutamax, 10% FBS and 1% Pen/Strep)) was seeded in a 96-well plate and then incubated overnight at 37° C. and 5% CO2. In day 2, 10 μL of growth medium containing 10-fold stock solution of testing compound was added into cell cultures (9 dose points with 3× serial dilution, starting with 30 μM, 0.3% DMSO final). After 72-hr incubation at 37° C. and 5% CO2, in day 5 a volume of 50 μL CellTiter Glo (CTG) reagent was added into cell-containing 96-well plate and the plate was incubated at room temperature for 10 minutes before RLUs (relative light unit) were measured on a microplate reader with luminescence detection module.
A general note: Cellular ATP, detected with luciferase, serves as a proxy for viable cell number.

Experiment [2] has as its target T1, NIH/3T3 cells overexpressing FGFR3 WT-TACC3 fusion protein (Homo sapiens, UniProt P22607).
T1 construct: NIH/3T3 FGFR3 WT-TACC3 CTG (IC50); other: 72-hr incubation, CellTiter Glo, top concentration 10 μM; fused on or other part: Q9Y6A5 (Transforming acidic coiled-coil-containing protein 3)
Put plainly: NIH/3T3 FGFR3 WT-TACC3 cell proliferation assay (CellTiter Glo). It is filed as cell-based. The note with it: 72-hr incubation, top concentration 10 μM, read-out: NIH/3T3 FGFR3 WT-TACC3 CTG (IC50). As to the method:
NIH/3T3 FGFR3 WT-TACC3 Cell Proliferation Assay
In day 1, 90 μL of cell suspension (NIH/3T3 cells overexpressing FGFR3 WT-TACC3 fusion protein) (total 30,000 cells per well in growth medium (DMEM containing 1% Glutamax, 10% FBS and 1% Pen/Strep)) was seeded in a 96-well plate and then incubated overnight at 37° C. and 5% CO2. […] After 72-hr incubation at 37° C. and 5% CO2, in day 5 a volume of 50 μL CellTiter Glo (CTG) reagent was added into cell-containing 96-well plate and the plate was incubated at room temperature for 10 minutes before RLUs (relative light unit) were measured on a microplate reader with luminescence detection module.

In experiment [3] the target is T2, human FGFR3 wild type enzyme (cytoplasmic domain) (Homo sapiens, UniProt P22607).
T2 construct: human FGFR3 wild type enzyme (cytoplasmic domain, from Carna Biosciences); purchased Carna Biosciences
Put plainly: FGFR3 wild type mobility shift assay (enzymatic assay). It is filed as biochemical. The note with it: 75 μM ATP, 50 minutes at 30° C, Caliper EZ reader II. From the text: FGFR3 Wild Type Mobility Shift Assay (Enzymatic Assay)

Structures can show the parent of a compound that is named as a salt.

T2 sequence (P22607 397-806 limits assumed): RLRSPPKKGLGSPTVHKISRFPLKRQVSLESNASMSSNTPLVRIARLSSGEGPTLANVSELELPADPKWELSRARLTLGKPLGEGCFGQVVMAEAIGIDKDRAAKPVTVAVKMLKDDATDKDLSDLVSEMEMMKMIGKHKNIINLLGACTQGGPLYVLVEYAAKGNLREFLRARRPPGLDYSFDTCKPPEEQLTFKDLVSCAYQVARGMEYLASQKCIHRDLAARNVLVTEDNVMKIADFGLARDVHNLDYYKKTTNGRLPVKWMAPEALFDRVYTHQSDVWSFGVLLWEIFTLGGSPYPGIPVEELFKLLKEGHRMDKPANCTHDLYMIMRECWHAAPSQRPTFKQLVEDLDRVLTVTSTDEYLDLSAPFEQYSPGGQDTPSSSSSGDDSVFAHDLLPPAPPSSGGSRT
T1 sequence (P22607 whole entry, change not shown, the tested form may be a part): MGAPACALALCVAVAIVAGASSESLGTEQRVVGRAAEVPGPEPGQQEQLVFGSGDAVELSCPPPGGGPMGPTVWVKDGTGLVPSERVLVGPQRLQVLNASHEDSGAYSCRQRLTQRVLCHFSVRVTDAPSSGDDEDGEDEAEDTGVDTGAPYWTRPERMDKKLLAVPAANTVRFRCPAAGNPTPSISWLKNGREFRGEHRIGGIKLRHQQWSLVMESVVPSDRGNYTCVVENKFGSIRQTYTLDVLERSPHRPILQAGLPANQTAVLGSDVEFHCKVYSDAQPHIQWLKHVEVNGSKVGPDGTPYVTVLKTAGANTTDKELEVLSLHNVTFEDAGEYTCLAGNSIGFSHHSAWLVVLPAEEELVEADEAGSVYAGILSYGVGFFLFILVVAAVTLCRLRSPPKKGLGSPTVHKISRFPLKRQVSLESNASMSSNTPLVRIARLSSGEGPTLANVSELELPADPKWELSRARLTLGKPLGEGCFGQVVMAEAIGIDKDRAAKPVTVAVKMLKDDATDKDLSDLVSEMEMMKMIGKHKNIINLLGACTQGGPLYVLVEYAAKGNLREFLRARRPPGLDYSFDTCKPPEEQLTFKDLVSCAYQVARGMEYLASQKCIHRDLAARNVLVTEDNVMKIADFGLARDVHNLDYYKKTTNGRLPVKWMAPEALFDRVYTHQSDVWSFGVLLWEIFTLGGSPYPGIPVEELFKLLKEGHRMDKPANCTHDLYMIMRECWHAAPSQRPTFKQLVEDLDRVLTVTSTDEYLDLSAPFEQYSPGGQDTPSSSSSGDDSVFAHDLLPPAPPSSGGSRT

Turning to `CC(Nc1c(-c2nc3cc(F)c(N4CCOCC4)cc3[nH]2)c(=O)[nH]c2cn(C)nc12)c1ncccn1` (single isomer, unassigned) [Compound 9, (S*)-6-(5-Fluoro-6-morpholino-1H-benzo[d]imidazol-2-yl)-2-methyl-7-((1-(pyrimidin-2-yl)ethyl)amino)-2H-pyrazolo[4,3-b]pyridin-5(4H)-one], the IC50 was found to be 691 nM in experiment [1] and 0.618 nM in experiment [3]. Further, the GI50 in experiment [2] came out at 17.1 nM.

`CC(Nc1c(-c2nc3ccc(N4CCOCC4)c(F)c3[nH]2)c(=O)[nH]c2cn(C)nc12)c1ncccn1` (single isomer, unassigned) [Compound 14, (S*)-6-(7-fluoro-6-morpholino-1H-benzo[d]imidazol-2-yl)-2-methyl-7-((1-(pyrimidin-2-yl)ethyl)amino)-2H-pyrazolo[4,3-b]pyridin-5(4H)-one]: the IC50 in experiment [1] was 424 nM; in experiment [3], 1.9 nM. In addition, in experiment [2], the GI50 was determined as 4.06 nM.

For `CC(Nc1c(-c2nc3ccc(N4CCCCC4)c(F)c3[nH]2)c(=O)[nH]c2cn(C)nc12)c1ncccn1` (single isomer, unassigned) [Compound 15, (S*)-6-(7-fluoro-6-(piperidin-1-yl)-1H-benzo[d]imidazol-2-yl)-2-methyl-7-((1-(pyrimidin-2-yl)ethyl)amino)-2H-pyrazolo[4,3-b]pyridin-5(4H)-one], the IC50 came out at 3700 nM in experiment [1] and 1.06 nM in experiment [3]. For the same molecule, the GI50 in experiment [2] came out at 16.9 nM.

Consider `CC(Nc1c(-c2nc3cc(C(F)(F)F)c(N4CCOCC4)cc3[nH]2)c(=O)[nH]c2cn(C)nc12)c1ncccn1` (single isomer, unassigned) [Compound 21, (R*)-2-methyl-6-(6-morpholino-5-(trifluoromethyl)-1H-benzo[d]imidazol-2-yl)-7-((1-(pyrimidin-2-yl)ethyl)amino)-2H-pyrazolo[4,3-b]pyridin-5(4H)-one], for which the IC50 in experiment [1] was 5900 nM; in experiment [3], 3.71 nM. Further, in experiment [2], the GI50 turned out to be 17.5 nM.

Consider `CC(Nc1c(-c2nc3ccc(C4CCOCC4)cc3[nH]2)c(=O)[nH]c2cn(C)nc12)c1ncccn1` (single isomer, unassigned) [Compound 22, (S*)-2-methyl-7-((1-(pyrimidin-2-yl)ethyl)amino)-6-(6-(tetrahydro-2H-pyran-4-yl)-1H-benzo[d]imidazol-2-yl)-2H-pyrazolo[4,3-b]pyridin-5(4H)-one], for which the IC50 in experiment [1] worked out at 1080 nM; in experiment [3] it was 0.377 nM. The GI50 in experiment [2] amounted to 18.1 nM.

Turning to `CC(C)C(Nc1c(-c2nc3cnc(N4CCN(C)CC4)cc3[nH]2)c(=O)[nH]c2cn(C)nc12)c1ncccn1` (single isomer, unassigned) [Compound 23, (S*)-2-methyl-7-((2-methyl-1-(pyrimidin-2-yl)propyl)amino)-6-(6-(4-methylpiperazin-1-yl)-1H-imidazo[4,5-c]pyridin-2-yl)-2H-pyrazolo[4,3-b]pyridin-5(4H)-one], the IC50 was 266 nM in experiment [1] and 0.979 nM in experiment [3]. Also, in experiment [2], the GI50 was found to be 34.6 nM.

Consider `CC(Nc1c(-c2nc3ccc(N4CCN(CC(F)(F)F)CC4)cc3[nH]2)c(=O)[nH]c2cn(C)nc12)c1ncccn1` (single isomer, unassigned) [Compound 26, (S*)-2-methyl-7-((1-(pyrimidin-2-yl)ethyl)amino)-6-(6-(4-(2,2,2-trifluoroethyl)piperazin-1-yl)-1H-benzo[d]imidazol-2-yl)-2H-pyrazolo[4,3-b]pyridin-5(4H)-one], for which the IC50 was determined as 768 nM in experiment [1] and 0.637 nM in experiment [3]. Besides, the GI50 in experiment [2] stood at 5.96 nM.

For the molecule `Cc1c(N2CCOCC2)ccc2nc(-c3c(NC(C)c4ncccn4)c4nn(C)cc4[nH]c3=O)[nH]c12` (single isomer, unassigned) [Compound 28, (S*)-2-methyl-6-(7-methyl-6-morpholino-1H-benzo[d]imidazol-2-yl)-7-((1-(pyrimidin-2-yl)ethyl)amino)-2H-pyrazolo[4,3-b]pyridin-5(4H)-one], the IC50 in experiment [1] came out at 2070 nM; in experiment [3] it was 0.939 nM. The GI50 in experiment [2] was 10 nM.

For the molecule `COCC(Nc1c(-c2nc3c(F)cc(N4CCOCC4)cc3[nH]2)c(=O)[nH]c2cn(C)nc12)c1ncccn1` (single isomer, unassigned) [Compound 29, (S*)-6-(4-fluoro-6-morpholino-1H-benzo[d]imidazol-2-yl)-7-((2-methoxy-1-(pyrimidin-2-yl)ethyl)amino)-2-methyl-2H-pyrazolo[4,3-b]pyridin-5(4H)-one], the IC50 came to 1530 nM in experiment [1] and 8.56 nM in experiment [3]. In addition, the GI50 in experiment [2] was found to be 98.3 nM.

As for `C[C@@H](Nc1c(-c2nc3ccc(N4CCN(C)CC4)cc3[nH]2)c(=O)[nH]c2cn(C)nc12)c1ncccc1C(F)(F)F` (single isomer, unassigned) [Compound 32, (R*)-2-methyl-6-(6-(4-methylpiperazin-1-yl)-1H-benzo[d]imidazol-2-yl)-7-((1-(3-(trifluoromethyl)pyridin-2-yl)ethyl)amino)-2H-pyrazolo[4,3-b]pyridin-5(4H)-one 0.2 formate], the IC50 in experiment [1] was found to be 4230 nM; in experiment [3], 4.29 nM. Moreover, the GI50 in experiment [2] is 195 nM.

As for `CC(Nc1c(-c2nc3ccc(N4CCCCC4)cc3[nH]2)c(=O)[nH]c2cn(C)nc12)c1ncccn1` (single isomer, unassigned) [Compound 34, (S*)-2-methyl-6-(6-(piperidin-1-yl)-1H-benzo[d]imidazol-2-yl)-7-((1-(pyrimidin-2-yl)-ethyl)amino)-2H-pyrazolo[4,3-b]pyridin-5(4H)-one], the IC50 in experiment [1] was determined as 734 nM; in experiment [3], 1.22 nM. The GI50 in experiment [2] came to 23.3 nM.

`CC(Nc1c(-c2nc3ccc(OC4CCOCC4)cc3[nH]2)c(=O)[nH]c2cn(C)nc12)c1cocn1` (single isomer, unassigned) [Compound 36, (S*)-2-methyl-7-((1-(oxazol-4-yl)ethyl)amino)-6-(6-((tetrahydro-2H-pyran-4-yl)oxy)-1H-benzo[d]imidazol-2-yl)-2H-pyrazolo[4,3-b]pyridin-5(4H)-one]: the figures for the IC50 in experiment [1] and in experiment [3] were 753 nM and 0.839 nM, respectively. The GI50 in experiment [2] worked out at 49.6 nM.

Consider `CCC(Nc1c(-c2nc3ccc(N4CCOCC4)cc3[nH]2)c(=O)[nH]c2cn(C)nc12)c1ncccn1` (single isomer, unassigned) [Compound 39, (S*)-2-methyl-6-(6-morpholino-1H-benzo[d]imidazol-2-yl)-7-((1-(pyrimidin-2-yl)-propyl)amino)-2H-pyrazolo[4,3-b]pyridin-5(4H)-one], for which the IC50 in experiment [1] stood at 458 nM; in experiment [3], 0.881 nM. Further, the GI50 in experiment [2] was found to be 16.3 nM.

Consider `COc1cc(N2CCOCC2)cc2[nH]c(-c3c(NC(C)c4ncccn4)c4nn(C)cc4[nH]c3=O)nc12` (single isomer, unassigned) [Compound 51, (S*)-6-(4-methoxy-6-morpholino-1H-benzo[d]imidazol-2-yl)-2-methyl-7-((1-(pyrimidin-2-yl)ethyl)amino)-2,4-dihydro-5H-pyrazolo[4,3-b]pyridin-5-one], for which the IC50 was 1160 nM in experiment [1] and 0.788 nM in experiment [3]. Also, the GI50 in experiment [2] was 44.6 nM.

Turning to `Cc1cc2nc(-c3c(N[C@@H](C)c4ncccn4)c4nn(C)cc4[nH]c3=O)[nH]c2cc1C(=O)N1CCCC1` [Compound 2], the IC50 in experiment [1] turned out to be 998 nM; in experiment [3], 0.903 nM. Further, in experiment [2], the GI50 turned out to be 21.3 nM.

For the molecule `CCn1cc2[nH]c(=O)c(-c3nc4cc(C)c(N5CCOCC5)cc4[nH]3)c(N[C@@H](C)c3ncccn3)c2n1` [Compound 5, (S)-2-ethyl-6-(5-methyl-6-morpholino-1H-benzo[d]imidazol-2-yl)-7-((1-(pyrimidin-2-yl)-ethyl)amino)-2,4-dihydro-5H-pyrazolo[4,3-b]pyridin-5-one], the IC50 in experiment [1] was found to be 1050 nM; in experiment [3] it was 1.78 nM. Also, the GI50 in experiment [2] worked out at 19.7 nM.

On to `CCn1cc2[nH]c(=O)c(-c3nc4c(F)cc(N5CCOCC5)cc4[nH]3)c(N[C@@H](C)c3ncccn3)c2n1` [Compound 6, (S)-2-ethyl-6-(4-fluoro-6-morpholino-1H-benzo[d]imidazol-2-yl)-7-((1-(pyrimidin-2-yl)-ethyl)amino)-2,4-dihydro-5H-pyrazolo[4,3-b]pyridin-5-one], for which the IC50 in experiment [1] amounted to 1280 nM; in experiment [3] it was 1.16 nM. In experiment [2], the GI50 was found to be 13.8 nM.
